From patent publication US7495098B2, “Extraction of alkaloids from opium” (Mallinckrodt Inc, priority 2004, dated 2009)

Tests used:
[1] = Alkaloid partition coefficients, pH 3.0 (mixing cylinder liquid extraction of opium filtrate, HPLC assay of layers); assay type: physicochemical
Text: The next part of the experiment was to test various solvents to identify possible candidates for liquid extraction so that the alkaloids can be separated and purified. There was fifty (50) milliliters of filtrate and fifty (50) milliliters of solvent were charged to one hundred (100) milliliter mixing cylinders. The one hundred (100) milliliter cylinders were shaken for thirty (30) seconds at approximately one (1) shake per second. The one hundred (100) milliliter mixing cylinders were allowed to settle, and the locations of the bottom and top of the rag layer were recorded over time. The results for one trial of the hydrochloric acid extraction of opium is presented in Table 2, and the results of one trial of acetic acid extraction is presented in Table 3. The four solvents used were toluene, hexane, n-butanol (n-BuOH), and isopentyl alcohol (i-C5OH).
After the mixing cylinder studies were completed, the layers were sampled for High Pressure Liquid Chromatography (HPLC) assay and partition coefficients were obtained for each of the systems.

[2] = Alkaloid partition coefficients, pH 9.0 (acetic acid opium extract and organic solvent, equal volumes)
Experimental: Some experiments were conducted with solvents to investigate liquid extraction to purify or separate the alkaloids. In these experiments, the aliquot of solvent layer was allowed to evaporate to dryness prior to diluting to volume with the dilute acetic acid. The aliquots were evaporated in this manner to eliminate the effect of solvents on retention time and the peak shape of the chromatography assays. Partition coefficients were obtained by dividing the concentration of the alkaloid in the organic layer by the concentration of the alkaloid in the aqueous layer. The disappearance of the rag layer following liquid extraction was done by filing a mixing container, e.g., cylinder, with the aqueous solution and the solvent. The mixing container, e.g., cylinder is then sealed with a stopper and shook for a predetermined time interval at a certain rate and then recording the interface levels over time.
The phases were allowed to separate, and aliquots of each layer were taken.

[3] = Stability of alkaloids in the acid digest of opium suspension at pH 3.0, room temperature; conditions: pH 3.0, up to 96 hours
Experimental: The purpose of Experiment I was to obtain side-by-side data of the performance of hydrochloric acid in relationship to acetic acid. The acid digestion occurred at room temperature for 96 hours. The opium suspensions were sampled at intervals, and assays were performed to test the rate of extraction of alkaloids from the opium.
The opium was dispersed by adding one liter of deionized water and 238 grams of opium to the blender. The blender was processed on “puree.” This is at 14,046 RPM, or a Reynold's number of 725,791 for two (2) minutes. The slurry was divided between two Erlenmeyer flasks. A tar ball remained in the bottom of the blender. The next step was to add 100 milliliters of water. The blender was then set to “liquefy.” This is at 20,495 RPM, or a Reynold's number of 991,216 for thirty (30) seconds. There was not an even distribution between the two Erlenmeyer flasks. This was followed by returning all of the slurry to the blender and processed on “liquefy” for an additional ten (10) seconds. The slurry was then split between the two Erlenmeyer flasks. The slurry was very frothy in appearance. The pH of each Erlenmeyer flask was adjusted to 3.0. In one Erlenmeyer flask, the pH was adjusted with hydrochloric acid (37%), and in the other Erlemneyer flask, the pH was adjusted with glacial acetic acid. […]

[4] = system BuOH/HCl (n-butanol, hydrochloric acid extract)
[5] = system BuOH/HOAc (n-butanol, acetic acid extract)
[6] = system CHCL3/HCl (chloroform, hydrochloric acid extract)
[7] = system CHCL3/HOAc (chloroform, acetic acid extract)
[8] = system I-pentyl/HCL (isopentyl alcohol, hydrochloric acid extract)
[9] = system I-pentyl/HOAc (isopentyl alcohol, acetic acid extract)

Compound | Portion of morphine originally present that decomposed (after 24 hours, extraction with butanol at pH 9.0 (FIG. 3)) | Decomposition during the extraction step (alkaline extraction with n-butanol and i-pentyl alcohol, pH 9.0, room temperature) | Alkaloid partition coefficient (concentration in organic layer / concentration in aqueous layer) [1, 4] | Alkaloid partition coefficient (concentration in organic layer / concentration in aqueous layer) [1, 5] | Alkaloid partition coefficient (concentration in organic layer / concentration in aqueous layer) [1, 6] | Alkaloid partition coefficient (concentration in organic layer / concentration in aqueous layer) [1, 7] | Alkaloid partition coefficient (concentration in organic layer / concentration in aqueous layer) [1, 8] | Alkaloid partition coefficient (concentration in organic layer / concentration in aqueous layer) [1, 9] | Alkaloid partition coefficient ([2]; system BuOH/HOAc) | Alkaloid partition coefficient ([2]; system Hexane/HOAc) | Alkaloid partition coefficient ([2]; system I-pentyl/HOAc) | Alkaloid partition coefficient ([2]; system Toluene/HOAc) | Stability (loss of alkaloid) in solution [3]
CN1CC[C@]23c4c5ccc(O)c4O[C@H]2[C@@H](O)C=C[C@H]3[C@H]1C5 [Morphine, morphine] | about half | decomposed |  |  |  |  |  |  |  |  |  |  | 
COC1=CC=C2[C@H]3Cc4ccc(OC)c5c4[C@@]2(CCN3C)[C@H]1O5 [Thebaine, thebaine] |  |  | 0.4312 | 0.6351 | 0.5363 | 1.5273 | 0.1053 | 0.1548 | 34.7434 | 1.8589 | 55.5035 | 154.6710 | does not appear to be any significant loss
COc1ccc2c3c1O[C@H]1[C@@H](O)C=C[C@H]4[C@@H](C2)N(C)CC[C@@]341 [Codeine, codeine] |  |  | 0.1374 | 0.2277 | 0.0074 | 0.0341 | 0.0181 | 0.0319 | 18.9714 | 0.0735 | 19.6646 | 5.3686 | does not appear to be any significant loss
